Values after ≈ are worked out from the molar mass of the structure shown. Values joined by “and” are separate entries in the source; they are usually repeats but may differ in a detail not shown here. Equal entries are not always repeated. Where two headings read alike, the source gives them in different places.
Experiments:
[1] = test system: Candida albicans SKF 2270; assay: MIC by broth microdilution (NCCLS) (Tables 42, 44); type: cell-based
[2] = test system: gram positive bacteria; assay: MIC by broth microdilution (NCCLS), with or without 30% bovine serum (Table 42); type: cell-based
Experimental: (§1) Before dissolution, each sample was analyzed by HPLC and quantified.
(§2) The microorganisms used were reference strains obtained from the American Type Culture Collection (ATCC) (Rockville, Md.), SmithKline and French Laboratories (SKF), and the Upjohn Company (UC) (Kalamazoo, Mich.).
(§3) MICs were determined by the broth microdilution methodology following the standard NCCLS procedure (NCCLS Document M7-A6, Vol. 23, No. 2, “Methods for dilution antimicrobial susceptibility tests for bacteria that grow aerobically.” Approved Guideline. January 2003, which can be herein incorporated by reference in its entirety), with or without 30% adult bovine serum (BS) (PAA Laboratories GMBH, Haidmannweg Pasching Austria), using bacterial innocula at approximately 5×10^5 CFU/ml. The media employed included cation-adjusted Müller Hinton broth (Difco Laboratories, Detroit, Mich.) that was used that was adjusted with CaCl2 and MgCl2 to a final concentration of 20 mg/L and 10 mg/L, respectively. Tests were read following 20-24 hours of incubation at 35° C.

[3] = test system: gram-negative bacteria; assay: MIC by broth microdilution (NCCLS) (Table 42); type: cell-based
Experimental: as §1, §2, §3

[4] = test system: Escherichia coli, Proteus vulgaris, Pseudomonas aeruginosas; assay: MIC by broth microdilution (NCCLS) of IsoB0 and reference compounds (Table 44), non-gram-positive bacterial strains; type: cell-based
Experimental: (§4) MICs were determined by the broth microdilution methodology following the standard NCCLS procedure, with or without 30% bovine serum, using bacterial inocula of approximately 5×10^5 CFU/mL. Tests were read after 20-24 h incubation at 35° C.

[5] = test system: Staph. aureus; assay: ED50 against Staph. aureus murine septicaemias (Table 2); type: in vivo; settings: Staphylococcus aureus, sc, 10 min
[6] = test system: N,N′-diacetyl-Lys-D-Ala-D-Ala; assay: Isothermal titration calorimetry of tri-peptide binding, with and without HSA (Table 39); settings: for Kd: read-out: Kdiss
Experimental: Antibiotics and peptides were dissolved in aqueous buffer (20 mM Na phosphate, 150 mM NaCl, pH 7.4) containing HSA, with gentle stirring immediately before each experiment. Peptide concentrations were determined by weight. […] HSA concentrations were determined by UV absorbance (HSA, ε280=37,700; A280^1%=5.44). Spectra were recorded at room temperature in 1 cm pathlength quartz cuvettes using Shimadzu UV-160A or UV-1601 spectrophotometers, with samples diluted quantitatively with buffer if necessary to give absorbance in the 0.1-1 A range.
Isothermal titration calorimetry was performed using a Microcal VP-ITC instrument at 25° C. and 37° C. using standard operating procedures. […] Samples were degassed gently prior to loading to prevent bubble formation in the calorimeter cell. […] Control experiments involved injection of ligand into buffer under identical conditions to determine heats of peptide dilution, and these values were used for correction of raw binding data prior to analysis.

[7] = CR-BSI trial: safety; settings: in vivo
Experimental: Safety was evaluated by the collection and analysis of data on adverse events (AEs), clinical laboratory tests, physical examinations, vital signs, and ECGs.

[8] = test system: gram positive bacteria; settings: NCCLS M100 S-12, cited from earlier work
[9] = test system: panel of gram-positive bacteria; assay: MIC by broth microdilution (NCCLS) of IsoB0 and reference compounds (Table 44); type: cell-based
Experimental: Müller Hinton broth (Difco Laboratories, Detroit, Mich., USA) adjusted with CaCl2 and MgCl2 to a final concentrations of 20 mg/L and 10 mg/L respectively.
The microorganisms used are reference standard strains from the American Type Culture Collection (ATCC, Rockville, USA), Smith Kline and French Laboratories (SKF) and the Upjohn Company (UC, Kalamazoo, Mich., USA).
as §4

[10] = test system: catheter-related blood stream infection (CR-BSI) due to gram-positive bacterial pathogens; assay: CR-BSI trial: efficacy (overall, clinical, microbiological response); type: in vivo, human; settings: microbiological ITT population at TOC; dalbavancin 1000 mg Day 1 + 500 mg Day 8 IV; vancomycin 1000 mg IV every 12 hours
Experimental: Patients with CR-BSI due to suspected or known Gram-positive pathogen(s) who met the inclusion/exclusion criteria were randomized to one of two treatment arms in this open-label, comparative, multi-center study. Dalbavancin was administered once weekly in weekly dalbavancin and comparator (vancomycin) was administered daily in vancomycin. Catheter removal was required for patients with Staphylococcus aureus infection; catheter management was left to the Investigator's discretion for patients with coagulase-negative staphylococci (CoNS) infection. Efficacy was clinically based on the improvement or resolution of clinical signs and symptoms of CR-BSI such that no additional antibacterials were warranted, and microbiologically on the eradication or presence of the baseline or other pathogens.
The treatment lasted for 14 days for patients with S. aureus infection, and 7 to 14 days for all other pathogens. […] Vancomycin was administered intravenously with a 1000 mg dose every 12 hours (or dose-adjusted based on drug levels).
Efficacy was evaluated based on clinical and microbiological responses.

[11] = test system: S aureus; assay: MIC, microbiological activity (Tables 2, 3); type: cell-based; settings: Staphylococcus aureus, read-out: MIC
[12] = test system: human α-glycoprotein; assay: Protein binding by isothermal titration microcalorimetry (Tables 27, 28); settings: for Calculated percent Binding: Human α-glycoprotein ([…]10^−5 M)
Experimental: (§5) Integrated heat effects, after correction for heats of dilution, were analyzed by non-linear regression using a simple single-site binding model with the standard Microcal ORIGIN software package. Raw data (μcal/sec) for each injection were integrated to give the total heat effect per addition, then divided by amount of injectant to give kcal/mole of injectant. The same integration was applied for control dilution effects, and this was subtracted from the actual titration data. This provided a differential of the binding curve in which the extent of binding is proportional to the total heat liberated (or absorbed). This was then analyzed by non-linear regression methods in terms of various standard binding models. The simplest model assumes simple non-competitive binding equilibrium, and gives three parameters:

[13] = ESI-MS of multimers in solution (concentration, pH, ionic strength); type: physicochemical
Experimental: Experiments were performed using an Applied Biosystem API III+ mass spectrometer equipped with a TurboIonSpray source, a Triple Quadrupole analyzer, operating in positive ion mode.
The mass spectra were obtained in electrospray positive mode on a Finnigan LCQ^Deca ion trap instrument previously tuned and calibrated in electrospray mode using Ultramark 1621, caffeine and MRFA (L-metionyl-arginyl-phenilalanyl-arginine).
The mass spectra were obtained in electrospray positive mode on a Finnigan LCQ^Deca ion trap instrument previous tuned and calibrated in electrospray mode using Ultramark 1621, caffeine and MRFA (L-metionyl-arginyl-phenilalanyl-arginine).

[14] = molecular target: human albumin (Homo sapiens, UniProt P02768); assay: Protein binding by isothermal titration microcalorimetry (Tables 27, 28); settings: for Calculated percent Binding: Human albumin (6×10^−4 M)
human albumin, sequence (P02768 25-609): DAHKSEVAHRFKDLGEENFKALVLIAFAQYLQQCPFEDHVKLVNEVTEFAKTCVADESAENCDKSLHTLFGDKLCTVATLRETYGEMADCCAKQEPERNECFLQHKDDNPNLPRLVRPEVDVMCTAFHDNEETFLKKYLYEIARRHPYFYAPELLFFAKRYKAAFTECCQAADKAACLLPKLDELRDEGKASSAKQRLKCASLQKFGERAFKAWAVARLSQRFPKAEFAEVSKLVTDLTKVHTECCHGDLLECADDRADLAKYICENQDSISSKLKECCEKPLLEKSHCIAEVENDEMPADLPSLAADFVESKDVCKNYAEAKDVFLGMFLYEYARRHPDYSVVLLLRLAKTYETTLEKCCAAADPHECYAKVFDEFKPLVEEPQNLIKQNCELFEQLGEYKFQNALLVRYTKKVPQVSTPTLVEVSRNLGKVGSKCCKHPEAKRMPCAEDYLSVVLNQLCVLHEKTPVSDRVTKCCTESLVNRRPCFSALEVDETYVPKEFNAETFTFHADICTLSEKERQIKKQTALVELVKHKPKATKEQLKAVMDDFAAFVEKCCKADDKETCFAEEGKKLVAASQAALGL
Experimental: as §5

[15] = E. faecalis ATCC29212 ref. strain
[16] = Enterococcus faecalis ATCC 7080
[17] = S. aureus ATCC 29213 ref. strain
[18] = Staphylococcus aureus Smith ATCC 19636
[19] = Pseudomonas aeruginosas ATCC 10145
[20] = Candida albicans SKF2270 (Table 44)
[21] = Enterococcus faecalis, ATCC29212
[22] = Staphylococcus aureus, ATCC19636
[23] = Staphylococcus aureus, ATCC29213
[24] = Staphylococcus epidermidis, ATCC12228

Compound: CC1(C)S[C@@H]2[C@H](NC(=O)Cc3ccccc3)C(=O)N2[C@H]1C(=O)O [Penicillin G]
- MIC ([1]; Candida albicans SKF 2270 (Table 42)): >32 µg/mL
- MIC ([2]; Bacillus subtilis ATCC 6633): ≦0.03 mg/L
- MIC [2, 15]: 4 µg/mL (≈ 12 µM)
- MIC [2, 16]: 32 µg/mL (≈ 95.7 µM)
- MIC [2, 17]: 8 µg/mL (≈ 23.9 µM)
- MIC ([2]; S. aureus Smith + 30% BS): 0.06 µg/mL
- MIC ([2]; S. epidermidis ATCC 12228): >32 µg/mL
- MIC ([2]; S. pneumoniae Felton UC41): ≦0.03 mg/L
- MIC [2, 18]: 0.06 µg/mL (≈ 0.179 µM)
- MIC ([2]; Streptococcus pyrogenes SKF 13400): ≦0.03 mg/L
- MIC ([3]; E. coli ATCC25922 ref. strain): >32 µg/mL
- MIC ([3]; Escherichia coli SKF 12140): >32 µg/mL
- MIC ([3]; Proteus vulgaris ATCC 881): >32 µg/mL
- MIC [3, 19]: >32 µg/mL

Compound: CN[C@H](CC(C)C)C(=O)N[C@H]1C(=O)N[C@@H](CC(N)=O)C(=O)N[C@H]2C(=O)N[C@H]3C(=O)N[C@H](C(=O)N[C@H](C(=O)O)c4cc(O)cc(O)c4-c4cc3ccc4O)[C@H](O)c3ccc(c(Cl)c3)Oc3cc2cc(c3O[C@@H]2O[C@H](CO)[C@@H](O)[C@H](O)[C@H]2O[C@H]2C[C@](C)(N)[C@H](O)[C@H](C)O2)Oc2ccc(cc2Cl)[C@H]1O [Vancomycin]
- MIC [1, 20]: >128 µg/mL
- MIC ([1]; Candida albicans, SKF2270): > 128 µg/mL
- MIC [2]: 1 µg/mL (≈ 0.69 µM)
- MIC ([2]; Bacillus subtilis ATCC 6633): ≤ 0.125 µg/mL
- MIC [2, 16]: 1 µg/mL (≈ 0.69 µM)
- MIC [2, 21]: 2 µg/mL (≈ 1.38 µM)
- MIC [2, 22]: 1 µg/mL (≈ 0.69 µM)
- MIC [2, 23]: 2 µg/mL (≈ 1.38 µM)
- MIC [2, 24]: 2 µg/mL (≈ 1.38 µM)
- MIC ([2]; Streptococcus pneumoniae, UC41): 0.5 µg/mL (≈ 0.345 µM)
- MIC [4]: > 128 µg/mL
- MIC ([4]; Escherichia coli): > 128 µg/mL
- MIC ([4]; Escherichia coli, ATCC25922): > 128 µg/mL
- MIC ([4]; Proteus vulgaris ATCC 881): > 128 µg/mL
- ED50 ([5]; MRSA): 1 mg/kg
- ED50 ([5]; MSSA): 1.7 mg/kg
- Kass ([6]; T 10 ° C., [HSA] 0 μM): 690000 M⁻¹
- Kass ([6]; T 25 ° C., [HSA] 0 μM): 340000 M⁻¹ and 360000 M⁻¹
- Kass ([6]; T 25 ° C., with HSA 513 μM): 290000 M⁻¹
- binding to dipeptide (D-Ala-D-Ala) or to Lys-D-Ala-D-Lactate ([6]; absence of serum proteins): no evidence of binding
- Kd ([6]; T 10 ° C., [HSA] 0 μM): 1.45 µM
- Kd ([6]; T 25 ° C., [HSA] 0 μM): 2.94 µM and 2.78 µM
- Kd ([6]; T 25 ° C., with HSA 513 μM): 3.45 µM
- MIC [3]: > 128 µg/mL
- MIC ([3]; Escherichia coli): > 128 µg/mL
- MIC ([3]; Escherichia coli, ATCC25922): > 128 µg/mL
- MIC ([3]; Proteus vulgaris ATCC 881): > 128 µg/mL
- patients with AEs that led to discontinuation of study drug ([7]; human, intravenous): 8.8%
- SAE considered to be related to study drug [7]: one SAE
- Quality control range of MICs for reference strains [8, 15]: ^2VA 1-4 mg/L
- Quality control range of MICs for reference strains [8, 17]: ^1VA 0.5-2 mg/L
- MIC ([9]; Bacillus subtilis ATCC 6633): ≤ 0.125 µg/mL
- MIC [9, 16]: 1 µg/mL (≈ 0.69 µM)
- MIC [9, 21]: 2 µg/mL (≈ 1.38 µM)
- MIC [9, 22]: 1 µg/mL (≈ 0.69 µM)
- MIC [9, 23]: 2 µg/mL (≈ 1.38 µM)
- MIC [9, 24]: 2 µg/mL (≈ 1.38 µM)
- MIC ([9]; Streptococcus pneumoniae, UC41): 0.5 µg/mL (≈ 0.345 µM)
- MIC ([9]; Streptococcus pyogenes): 1 µg/mL (≈ 0.69 µM)
- overall response success rate [10]: 50.0%
- MIC ([11]; MRSA Staph. aureus 3817): 0.5 µg/mL (≈ 0.345 µM)
- MIC ([11]; MSSA Staph. aureus Smith 819): 0.5 µg/mL (≈ 0.345 µM)

Compound: CN[C@H]1C(=O)N[C@@H]2Cc3ccc(cc3)Oc3cc4cc(c3O[C@@H]3O[C@H](C(=O)O)[C@@H](O)[C@H](O)[C@H]3NC(=O)CCCCCCCCC(C)C)Oc3ccc(cc3Cl)[C@@H](O)[C@@H]3NC(=O)[C@H](NC(=O)[C@@H]4NC(=O)[C@H](NC2=O)c2cc(cc(O)c2Cl)Oc2cc1ccc2O)c1ccc(O)c(c1)-c1c(O[C@H]2O[C@H](CO)[C@@H](O)[C@H](O)[C@@H]2O)cc(O)cc1[C@@H](C(=O)NCCCN(C)C)NC3=O [isoB0]
- MIC [1, 20]: >64 µg/mL
- MIC ([4]; E. coli ATCC25922 ref. strain): 64 µg/mL (≈ 35.2 µM)
- MIC ([4]; Escherichia coli SKF 12140): 64 µg/mL (≈ 35.2 µM)
- MIC ([4]; Proteus vulgaris ATCC 881): >64 µg/mL
- MIC [4, 19]: >64 µg/mL
- activity against a panel of gram-positive bacteria [9]: very similar to dalbavancin
- MIC ([9]; Bacillus subtilis ATCC 6633): ≦0.06 mg/L
- MIC [9, 15]: 0.25 µg/mL (≈ 0.138 µM)
- MIC [9, 16]: 0.25 µg/mL (≈ 0.138 µM)
- MIC [9, 17]: 0.25 µg/mL (≈ 0.138 µM)
- MIC ([9]; S. aureus Smith + 30% BS): 16 µg/mL
- MIC ([9]; S. epidermidis ATCC 12228): 0.125 µg/mL (≈ 0.0688 µM)
- MIC ([9]; S. pneumoniae Felton UC41): 0.125 µg/mL (≈ 0.0688 µM)
- MIC [9, 18]: 0.5 µg/mL (≈ 0.275 µM)
- MIC ([9]; Streptococcus pyogenes SKF13400): 0.06 µg/mL (≈ 0.033 µM)

Compound: Teicoplanin
- Calculated percent Binding ([12]; antibiotic 1 μM): 9.6%
- Calculated percent Binding ([12]; antibiotic 10 μM): 9.1%
- Calculated percent Binding ([12]; antibiotic 100 μM): 6.0%
- apparent binding affinity (Ka) ([12]; α-glycoprotein, 25° C.): 0.07 (±0.01) ×10^5 M^−1
- multimers in solution (ESI-MS) [13]: does not show multimeric complexes
- Calculated percent Binding ([14]; antibiotic 1 μM): 98.3%
- Calculated percent Binding ([14]; antibiotic 10 μM): 98.3%
- Calculated percent Binding ([14]; antibiotic 100 μM): 98.0%
- apparent binding affinity (Ka) ([14]; Human albumin, 25° C., pH 7.4): 0.96 (±0.08) ×10^5 M^−1

Reference: patent US8143212B2 (Vicuron Pharmaceuticals Inc., priority 2002, dated 2012)
